{"source": "patent US20080207724A1", "about": "“Use of Inhibitors of Histone Deacteylases in Combination With Compounds Acting as Nsaid for the Therapy of Human Diseases” (priority 2005, published 2008)", "key": {"THP-1 monocytes": {"tested_on": "THP-1 monocytes", "test": "Prostaglandin secretion, Celecoxib plus HDAC inhibitor, THP-1 monocytes", "format": "cell-based, human", "conditions": "in combination with Celecoxib, FIG. 4", "experimental": "In parallel, Cox-2 protein levels were reduced as already described.\n(§1) In detail, cells were seeded at a density of 7,5×10^4 per well in 24 well plates. Supernatants were analyzed in a dilution of 1:3 in duplicates with the prostaglandin E2 EIA Kit from Cayman according to the manufacture's instructions. Bars show the mean of two values. Cell extracts were prepared by removing growth medium completely and adding of 200 μl of Laemmli Sample buffer per well. Subsequently, 60 μl were loaded on 8% acrylamide gels and subjected to discontinuous electrophoresis. Proteins blotted onto PVDF membranes which were probed with a goat anti-Cox-2 antibody (St. Cruz, scl 747) or a mouse anti-pan-actin (to analyze the expression of this control protein) antibody (Ab-5, NeoMarkers)."}, "Cox-2 [1]": {"tested_on": "Cox-2", "test": "Cox-2 expression (Western blot / RT-PCR) in various cell types", "format": "cell-based, human", "conditions": "for Expression of Cox-2 on RNA and protein level: several systems: A-549, SK-Mel, HT-29, MDA-MB-231, THP-1, primary human lymphocytes and macrophages, FIGS. 1 and 2", "experimental": "In HT-29 colon carcinoma cells Cox-2 expression was induced by treatment with 100 ng/ml TNF-α for 4 h.\nCells were seeded at densities between 5×10^4 and 1×10^5 cells per well of 24 well plates. Lysis was done by removing growth medium and adding 200 μl of Laemmli sample buffer per well. 60 μl were loaded on 8% acrylamide gels and subjected to discontinuous electrophoresis. Proteins blotted onto PVDF membranes were probed with a goat-anti-Cox-2 antibody (St. Cruz, sc1747) or a mouse anti-pan-actin antibody (Ab-5, NeoMarkers).\nas §1, with “electrophoresis.” for “electrophoresis. Proteins blotted onto PVDF membranes which were probed with a goat anti-Cox-2 antibody (St. Cruz, scl 747) or a mouse anti-pan-actin (to analyze the expression of this control protein) antibody (Ab-5, NeoMarkers).”"}, "prostaglandin E2": {"tested_on": "prostaglandin E2", "test": "Prostaglandin levels in liver extracts of APCmin mice (ex vivo cyclooxygenase activity)", "set-up": "species or system mouse", "conditions": "liver taken 3 hours after final dose, same treatment as adenoma study, FIG. 5b", "experimental": "(§2) Control animals were injected (i.p.) with PBS. […] At sacrifice entire intestinal tracts were opened longitudinally and fixed in 10% phosphate buffered formaldehyde for 24 hours followed by ethanol-fixation in 50% ethanol for three days. […] Cyclooxygenase activity was assessed ex vivo in hepatic tissue as described (Reuter et al., 2002; BMC Cancer 2:19). Briefly, mice were euthanized 3 hours following the final dose of vehicle or drugs and a sample of liver tissue (−100 mg) was obtained. The samples were then placed into microcentrifuge tubes containing 1 ml of sodium phosphate buffer (10 mM, pH 7.4) and finely minced with scissors for 15 seconds. Samples were then incubated for 20 min at […] in a shaking water bath. After the incubation period, samples were centrifuged at 9000×g for 30 seconds and the supernatants collected. Supernatants were flash frozen in liquid nitrogen and stored at […] for subsequent determination of prostaglandin E2 content. PGE2 concentrations were determined in duplicates after 1:20 dilution of supernatants using a commercially available competitive Enzyme Immunoassay (Cayman Chemical)."}, "[2]": {"tested_on": "MDA-MB-231 mammary carcinoma cells", "test": "Prostaglandin secretion, Celecoxib plus HDAC inhibitor, MDA-MB-231 cells", "format": "cell-based, human", "conditions": "in combination with Celecoxib, FIG. 4", "experimental": "as §1, with “electrophoresis.” for “electrophoresis. Proteins blotted onto PVDF membranes which were probed with a goat anti-Cox-2 antibody (St. Cruz, scl 747) or a mouse anti-pan-actin (to analyze the expression of this control protein) antibody (Ab-5, NeoMarkers).”"}, "Cox-2 [3]": {"tested_on": "Cox-2", "test": "Semi quantitative RT-PCR of Cox-2 in peripheral blood lymphocytes of VPA-treated patients", "format": "in vivo, human", "conditions": "patients treated with 30 mg/kg/d or 120 mg/kg/d VPA; control gene GAPDH unchanged; FIG. 1B", "experimental": "Semi quantitative RT-PCR was also performed with RNA isolated form peripheral blood lymphocytes of patients treated with doses 30 mg/kg/d (Patient 1) or 120 mg/kg/d VPA (Patient 2) respectively."}, "[4]": {"tested_on": "collagen induced arthritis in DBA/1 mice", "test": "Therapeutic collagen induced arthritis (CIA) model, clinical severity score", "format": "in vivo", "conditions": "DBA/1 mice with CIA, 15 days; VPA 2×400 mg/kg/d i.p., G2M-707 2×1 mg/mouse/d i.p.; versus control group; FIG. 6 upper panel", "experimental": "To evaluate this anti-inflammatory potency of HDAC inhibitors in a therapeutic in vivo inflammation model we applied VPA and G2M-707 to mice that had developed collagen induced arthritis (CIA).\nPrednisolon, a corticosteroid drug in clinical use for RA, was used as a positive control in this study.\nIn detail, in this therapeutic CIA model, DBA/1 female mice of age 7 weeks were immunized with 100 μg of chicken type II collagen (Chondrex) in CFA. Development of arthritis started 21 to 28 days after immunization and reached an incidence of 93% after 6 weeks. The severity was medium to high and reached a mean score of 10.3 (maximum score 15) in untreated animals. The mice were monitored daily for signs of arthritis using an established scoring system. At the first sign of arthritis, the affected mice were assigned to a treatment group. The mice were treated for 15 days with vehicle control or VPA at 2×400 mg/kg/d i.p. or G2M-707 at 2×1 mg/mouse/d i.p. or Prednisolon at 2×20 mg/kg/d (i.p.). Clinical severity of arthritis was assessed based on the appearance of each paw and subjectively graded on a scale of 0 to 4. The scores of each limb were summed, giving a maximum severity score of 16. […] After onset of disease the animals were scored 3 times a week."}, "TNF-α, IFN-γ and IL-6": {"tested_on": "TNF-α, IFN-γ and IL-6", "test": "Semi quantitative RT-PCR of cytokine RNA in LPS-induced THP-1 cells", "format": "cell-based, human", "conditions": "THP-1 cells differentiated with TPA; 1 mM VPA or 10 μM G2M-707 over night, then 10 μg/ml LPS 6 h; FIG. 1A", "experimental": "(§3) THP-1 cells were induced to differentiate by addition of 20 ng/ml TPA to the growth medium for 3d. Adherent cells were seeded at a density of 5×10^5 cells per well of a 6-well plate, and were incubated with 1 mM VPA or 10 μM G2M-707 over night (FIG. 1A). Cox-2 expression was then induced by addition of 10 μg/ml LPS for 6 h. RNA was prepared using the RNeasy Kit from Qiagen according to the manufacturer's instructions. Reverse transcription was done with 1 μg of RNA in a volume of 20 μl. 1 μl was used for each PCR reaction with specific primers for the indicated genes."}, "COX-2 RNA": {"tested_on": "COX-2 RNA", "test": "Semi quantitative RT-PCR of COX-2 RNA in LPS-induced THP-1 cells", "format": "cell-based, human", "conditions": "THP-1 cells differentiated with TPA; 1 mM VPA or 10 μM G2M-707 over night, then 10 μg/ml LPS 6 h; FIG. 1A", "experimental": "as §3"}, "TNF-α": {"tested_on": "TNF-α", "test": "Acute LPS-induced inflammation model, serum TNF-α ELISA", "format": "in vivo", "conditions": "3H1 mice; i.p. 1 h before LPS (50 μg per mouse); blood 1 h after LPS; VPA 400 mg/kg/d, G2M-707 1 mg/mouse/d; FIG. 6 lower panel", "experimental": "To evaluate the ability of HDAC inhibitors to inhibit soluble TNF-α secretion in vivo, an acute LPS-induced inflammation model in 3H1 mice was used. The mice were injected i.p. with substances tested 1 h before the i.p. injection of LPS. Blood samples were drawn 1 h after LPS stimulus and the TNF-α levels in the serum were determined using a TNF-α ELISA assay. As shown in FIG. 6 (lower panel), VPA and G2M-707 pretreatment led to a 60% reduction in absolute TNF-α serum levels in comparison to the control mice.\nIn detail, mice were treated with VPA (400 mg/kg/d, n=8), G2M-701 (1 mg/mouse/d, n=4), G2M-707 (1 mg/mouse/d, n=4) or with 200 μl PBS (control, n=8) 1 h before inflammation was induced with 50 μg LPS (Sigma) per mouse. One hour after the LPS treatment, blood was taken by cardiac puncture and serum was isolated. The serum was tested in a TNF-α sandwich ELISA module from Bender MedSystems. The assay was performed as described in the manufacturer's manual. ABTS was used as a substrate and measuring was accomplished with a 96-well plate reader at a wavelength of 405 nm. Absolute OD levels at 405 nm are given."}, "[5]": {"tested_on": "adenomas in C57BL/6J-APCmin/+ mice", "test": "Adenoma number in the APCmin mouse model", "format": "in vivo", "conditions": "four weeks, VPA sodium salt 2×400 mg/kg/day i.p., Celecoxib 1250 ppm in diet, combination same dosages, FIG. 5A", "experimental": "as §2"}}, "data": [{"smiles": "CC(/C=C/C(=O)NO)=C\\[C@@H](C)C(=O)c1ccc(N(C)C)cc1", "note": "[TSA, Trichostatin A]", "values": [{"measurement": "prostaglandin levels, HDAC inhibitor added to Celecoxib", "setting": "THP-1 monocytes", "value": "reduce the prostaglandin levels further"}, {"measurement": "Expression of Cox-2 on RNA and protein level", "setting": "Cox-2 [1]", "value": "downregulated"}]}, {"smiles": "CCCC(CCC)C(=O)O", "note": "[VPA, 2-propyl-pentanoic acid]", "values": [{"measurement": "prostaglandin levels in liver extracts", "setting": "prostaglandin E2", "value": "decrease"}, {"measurement": "repression of prostaglandin secretion by Celecoxib, HDAC inhibitor added", "setting": "[2]", "value": "dose dependently enhance"}, {"measurement": "Cox-2 RNA in peripheral blood lymphocytes of patients", "setting": "Cox-2 [3]", "value": "downregulation"}, {"measurement": "clinical severity scores (sum score)", "setting": "[4]", "value": "efficiently reduced"}, {"measurement": "TNF-α, IFN-γ and IL-6 RNA", "setting": "TNF-α, IFN-γ and IL-6", "value": "downregulation"}, {"measurement": "COX-2 RNA", "setting": "COX-2 RNA", "value": "downregulation"}, {"measurement": "reduction in absolute TNF-α serum levels in comparison to the control mice", "setting": "TNF-α", "value": 60, "unit": "%"}, {"measurement": "Cox-2 protein levels", "setting": "Cox-2 [1]; MDA-MB-231 cells, VPA together with Celecoxib, FIG. 4", "value": "reduced"}, {"measurement": "Expression of Cox-2 on RNA and protein level", "setting": "Cox-2 [1]", "value": "downregulated"}, {"measurement": "number of adenomas", "setting": "[5]", "value": "significantly reduces"}]}]}
